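Tested at 5 concentrations; 48 h exposure; 96-well plates; endpoints linearly interpolated, else capped at highest concentration. GI50 is the concentration that inhibits growth by half.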 Calls of active or inactive are those of the source. Cut-off read from the data, not from the text of the source: active = GI50 up to about 1.1 µM and inactive = higher.
Key:
Assay in all cases: inhibition of tumour cell growth, NCI panel, 48 h
SK-OV-3 = system: SK-OV-3
SF-539 = system: SF-539
HOP-62 = system: HOP-62
MCF7 = system: MCF7
SF-295 = system: SF-295
HCC 2998 = system: HCC 2998
U-251 = system: U-251
SNB-19 = system: SNB-19
A498 = system: A498
NCI/ADR-RES = system: NCI/ADR-RES
LOX IMVI = system: LOX IMVI
NCI-H226 = system: NCI-H226
MDA-MB-435 = system: MDA-MB-435
M14 = system: M14
HT-29 = system: HT-29
RXF 393 = system: RXF 393
MDA-MB-231 = system: MDA-MB-231
SK-MEL-5 = system: SK-MEL-5
MOLT-4 = system: MOLT-4
PC-3 = system: PC-3
HCT-116 = system: HCT-116
NCI-H23 = system: NCI-H23
Hs-578T = system: Hs-578T
UACC-62 = system: UACC-62
UACC-257 = system: UACC-257
MDA-N = system: MDA-N
SR = system: SR
COLO 205 = system: COLO 205
EKVX = system: EKVX
HOP-92 = system: HOP-92
786-0 = system: 786-0
CCRF-CEM = system: CCRF-CEM
SK-MEL-2 = system: SK-MEL-2
HCT-15 = system: HCT-15
CAKI-1 = system: CAKI-1
T47D = system: T47D
NCI-H460 = system: NCI-H460
OVCAR-3 = system: OVCAR-3
RPMI-8226 = system: RPMI-8226
OVCAR-5 = system: OVCAR-5
SN12C = system: SN12C
K562 = system: K562
BT-549 = system: BT-549
Malme-3M = system: Malme-3M
NCI-H522 = system: NCI-H522
HL-60 = system: HL-60
DU-145 = system: DU-145
SW-620 = system: SW-620
ACHN = system: ACHN
SF-268 = system: SF-268
TK-10 = system: TK-10
IGROV-1 = system: IGROV-1
SK-MEL-28 = system: SK-MEL-28
OVCAR-8 = system: OVCAR-8
OVCAR-4 = system: OVCAR-4
A549 = system: A549
SNB-75 = system: SNB-75
KM12 = system: KM12
UO-31 = system: UO-31

Structure (SMILES): COc1cc2c(cc1OC)C(=O)N(c1ccc(O)cc1)C2=O
- GI50 (SK-OV-3): > 100 µM (inactive)
- GI50 (SF-539): > 100 µM (inactive)
- GI50 (HOP-62): > 100 µM (inactive)
- GI50 (MCF7): < 0.01 µM (active)
- GI50 (SF-295): > 100 µM (inactive)
- GI50 (HCC 2998): > 100 µM (inactive)
- GI50 (U-251): > 100 µM (inactive)
- GI50 (SNB-19): > 100 µM (inactive)
- GI50 (A498): > 100 µM (inactive)
- GI50 (NCI/ADR-RES): > 100 µM (inactive)
- GI50 (LOX IMVI): > 100 µM (inactive)
- GI50 (NCI-H226): > 100 µM (inactive)
- GI50 (MDA-MB-435): > 100 µM (inactive)
- GI50 (M14): > 100 µM (inactive)
- GI50 (HT-29): > 100 µM (inactive)
- GI50 (RXF 393): > 100 µM (inactive)
- GI50 (MDA-MB-231): > 100 µM (inactive)
- GI50 (SK-MEL-5): > 100 µM (inactive)
- GI50 (MOLT-4): > 100 µM (inactive)
- GI50 (PC-3): > 100 µM (inactive)
- GI50 (HCT-116): > 100 µM (inactive)
- GI50 (NCI-H23): > 100 µM (inactive)
- GI50 (Hs-578T): > 100 µM (inactive)
- GI50 (UACC-62): > 100 µM (inactive)
- GI50 (UACC-257): > 100 µM (inactive)
- GI50 (MDA-N): > 100 µM (inactive)
- GI50 (SR): > 100 µM (inactive)
- GI50 (COLO 205): > 100 µM (inactive)
- GI50 (EKVX): > 100 µM (inactive)
- GI50 (HOP-92): > 100 µM (inactive)
- GI50 (786-0): > 100 µM (inactive)
- GI50 (CCRF-CEM): > 100 µM (inactive)
- GI50 (SK-MEL-2): > 100 µM (inactive)
- GI50 (HCT-15): > 100 µM
- GI50 (CAKI-1): > 100 µM (inactive)
- GI50 (T47D): > 100 µM (inactive)
- GI50 (NCI-H460): > 100 µM (inactive)
- GI50 (OVCAR-3): > 100 µM (inactive)
- GI50 (RPMI-8226): > 100 µM (inactive)
- GI50 (OVCAR-5): > 100 µM (inactive)
- GI50 (SN12C): > 100 µM (inactive)
- GI50 (K562): > 100 µM (inactive)
- GI50 (BT-549): > 100 µM (inactive)
- GI50 (Malme-3M): > 100 µM (inactive)
- GI50 (NCI-H522): > 100 µM (inactive)
- GI50 (HL-60): > 100 µM (inactive)
- GI50 (DU-145): > 100 µM (inactive)
- GI50 (SW-620): > 100 µM (inactive)
- GI50 (ACHN): > 100 µM (inactive)
- GI50 (SF-268): > 100 µM (inactive)
- GI50 (TK-10): > 100 µM (inactive)
- GI50 (IGROV-1): > 100 µM (inactive)
- GI50 (SK-MEL-28): > 100 µM (inactive)
- GI50 (OVCAR-8): > 100 µM (inactive)
- GI50 (OVCAR-4): > 100 µM (inactive)
- GI50 (A549): > 100 µM (inactive)

Structure (SMILES): Cc1cn(CCCCCCOC(=O)NC(CCCNC(N)=O)C(=O)O)c(=O)[nH]c1=O (stereo not given)
- GI50 (SK-OV-3): > 100 µM (inactive)
- GI50 (SF-539): > 100 µM (inactive)
- GI50 (SNB-75): > 100 µM (inactive)
- GI50 (HOP-62): > 100 µM (inactive)
- GI50 (MCF7): > 100 µM (inactive)
- GI50 (SF-295): > 100 µM (inactive)
- GI50 (HCC 2998): > 100 µM (inactive)
- GI50 (U-251): > 100 µM (inactive)
- GI50 (SNB-19): > 100 µM (inactive)
- GI50 (A498): > 100 µM (inactive)
- GI50 (NCI/ADR-RES): > 100 µM (inactive)
- GI50 (LOX IMVI): > 100 µM (inactive)
- GI50 (NCI-H226): > 100 µM (inactive)
- GI50 (MDA-MB-435): > 100 µM (inactive)
- GI50 (M14): > 100 µM (inactive)
- GI50 (HT-29): > 100 µM (inactive)
- GI50 (RXF 393): > 100 µM (inactive)
- GI50 (MDA-MB-231): > 100 µM (inactive)
- GI50 (MOLT-4): > 100 µM (inactive)
- GI50 (KM12): > 100 µM (inactive)
- GI50 (UO-31): > 100 µM (inactive)
- GI50 (PC-3): > 100 µM (inactive)
- GI50 (HCT-116): > 100 µM (inactive)
- GI50 (NCI-H23): > 100 µM (inactive)
- GI50 (Hs-578T): > 100 µM (inactive)
- GI50 (UACC-62): > 100 µM (inactive)
- GI50 (UACC-257): > 100 µM (inactive)
- GI50 (MDA-N): > 100 µM (inactive)
- GI50 (SR): > 100 µM (inactive)
- GI50 (COLO 205): > 100 µM (inactive)
- GI50 (EKVX): > 100 µM (inactive)
- GI50 (HOP-92): > 100 µM (inactive)
- GI50 (786-0): > 100 µM (inactive)
- GI50 (CCRF-CEM): > 100 µM (inactive)
- GI50 (SK-MEL-2): > 100 µM (inactive)
- GI50 (HCT-15): > 100 µM
- GI50 (CAKI-1): > 100 µM (inactive)
- GI50 (T47D): > 100 µM (inactive)
- GI50 (NCI-H460): > 100 µM (inactive)
- GI50 (OVCAR-3): > 100 µM (inactive)
- GI50 (RPMI-8226): > 100 µM (inactive)
- GI50 (OVCAR-5): > 100 µM (inactive)
- GI50 (SN12C): > 100 µM (inactive)
- GI50 (K562): > 100 µM (inactive)
- GI50 (BT-549): > 100 µM (inactive)
- GI50 (HL-60): > 100 µM (inactive)
- GI50 (DU-145): > 100 µM (inactive)
- GI50 (SW-620): > 100 µM (inactive)
- GI50 (ACHN): > 100 µM (inactive)
- GI50 (SF-268): > 100 µM (inactive)
- GI50 (TK-10): > 100 µM (inactive)
- GI50 (IGROV-1): > 100 µM (inactive)
- GI50 (SK-MEL-28): > 100 µM (inactive)
- GI50 (OVCAR-8): > 100 µM (inactive)
- GI50 (OVCAR-4): > 100 µM (inactive)
- GI50 (A549): > 100 µM (inactive)

Structure (SMILES): Oc1ccc2ccccc2c1C(c1ccc(Cl)cc1)c1c(O)ccc2ccccc12
- GI50 (SK-OV-3): 4.66 µM (inactive)
- GI50 (SF-539): 5.05 µM (inactive)
- GI50 (SNB-75): 3.18 µM (inactive)
- GI50 (HOP-62): 3.89 µM (inactive)
- GI50 (MCF7): 3.57 µM (inactive)
- GI50 (SF-295): 3.4 µM (inactive)
- GI50 (HCC 2998): 1.34 µM (inactive)
- GI50 (U-251): 3.43 µM (inactive)
- GI50 (SNB-19): 4.93 µM (inactive)
- GI50 (A498): 2.7 µM (inactive)
- GI50 (NCI/ADR-RES): 2.85 µM (inactive)
- GI50 (LOX IMVI): 2.91 µM (inactive)
- GI50 (MDA-MB-435): 3.18 µM (inactive)
- GI50 (M14): 4.06 µM (inactive)
- GI50 (HT-29): 2.98 µM (inactive)
- GI50 (RXF 393): 2.96 µM (inactive)
- GI50 (MDA-MB-231): 3.17 µM (inactive)
- GI50 (SK-MEL-5): 2.3 µM (inactive)
- GI50 (MOLT-4): 2.86 µM (inactive)
- GI50 (KM12): 2.67 µM (inactive)
- GI50 (UO-31): 2.9 µM (inactive)
- GI50 (PC-3): 2.51 µM (inactive)
- GI50 (HCT-116): 2.48 µM (inactive)
- GI50 (NCI-H23): 3.78 µM (inactive)
- GI50 (Hs-578T): 0.989 µM (active)
- GI50 (UACC-62): 3.48 µM (inactive)
- GI50 (UACC-257): 4.13 µM (inactive)
- GI50 (MDA-N): 3.31 µM (inactive)
- GI50 (SR): 2.82 µM (inactive)
- GI50 (COLO 205): 2.06 µM (inactive)
- GI50 (EKVX): 2.59 µM (inactive)
- GI50 (HOP-92): 1.65 µM (inactive)
- GI50 (786-0): 3.66 µM (inactive)
- GI50 (CCRF-CEM): 2.63 µM (inactive)
- GI50 (SK-MEL-2): 2.4 µM (inactive)
- GI50 (HCT-15): 3.49 µM
- GI50 (CAKI-1): 2.71 µM (inactive)
- GI50 (T47D): 2.86 µM (inactive)
- GI50 (NCI-H460): 3.16 µM (inactive)
- GI50 (OVCAR-3): 2.63 µM (inactive)
- GI50 (RPMI-8226): 2.01 µM (inactive)
- GI50 (OVCAR-5): 3.08 µM (inactive)
- GI50 (SN12C): 2.76 µM (inactive)
- GI50 (K562): 2.67 µM (inactive)
- GI50 (BT-549): 4.65 µM (inactive)
- GI50 (Malme-3M): 2 µM (inactive)
- GI50 (NCI-H522): 2.09 µM (inactive)
- GI50 (HL-60): 2.34 µM (inactive)
- GI50 (DU-145): 3.37 µM (inactive)
- GI50 (SW-620): 3.18 µM (inactive)
- GI50 (ACHN): 3.52 µM (inactive)
- GI50 (SF-268): 1.66 µM (inactive)
- GI50 (TK-10): 3.53 µM (inactive)
- GI50 (IGROV-1): 2.35 µM (inactive)
- GI50 (SK-MEL-28): 3.87 µM (inactive)
- GI50 (OVCAR-8): 3.33 µM (inactive)
- GI50 (OVCAR-4): 3.05 µM (inactive)
- GI50 (A549): 2.95 µM (inactive)
